ChEMBL document CHEMBL1133984, “Synthesis, topoisomerase I inhibition and antitumor cytotoxicity of 2,2':6',2"-, 2,2':6',3"- and 2,2':6',4"-terpyridine derivatives” (2001)
In brackets after ≈: the same amount, converted by molar mass.

Experiments:
Assay type in all cases: functional
Settings in all cases: Homo sapiens
HT-29 = test: Antitumor cytotoxic activity against HT-29 cell line was determined
A498 = test: Antitumor cytotoxic activity against A-498 cell line was determined
SK-OV-3 = test: Antitumor cytotoxic activity against SK-OV-3 cell line was determined
RPTEC = test: Antitumor cytotoxic activity against RPTEC cell line was determined
PC-3 = test: Antitumor cytotoxic activity against PC-3 cell line was determined
SK-MEL-2 = test: Antitumor cytotoxic activity against SK-MEL-2 cell line was determined
HCT-15 = test: Antitumor cytotoxic activity against HCT-15 cell line was determined
A549 = test: Antitumor cytotoxic activity against A-549 cell line was determined

SMILES	GI50 (HT-29) [ng/mL]	GI50 (A498) [ng/mL]	GI50 (SK-OV-3) [µg/mL]	GI50 (RPTEC) [µg/mL]	GI50 (PC-3) [µg/mL]	GI50 (SK-MEL-2) [µg/mL]	GI50 (HCT-15) [µg/mL]	GI50 (A549) [µg/mL]
c1ccc(-c2cc(-c3ccccn3)nc(-c3ccccn3)c2)cc1	1.4 (≈ 0.00453 µM)	2.5 (≈ 0.00808 µM)	0.12 (≈ 0.388 µM)	0.027 (≈ 0.0873 µM)	0.017 (≈ 0.055 µM)	7.5 (≈ 24.2 µM)	0.37 (≈ 1.2 µM)	0.56 (≈ 1.81 µM)
c1ccc(-c2cccc(-c3ccccn3)n2)nc1 [TERPYRIDINE]	2.6 (≈ 0.0111 µM)	0.097 (≈ 0.000416 µM)	0.072 (≈ 0.309 µM)	0.014 (≈ 0.06 µM)	0.00073 (≈ 0.00313 µM)	0.1 (≈ 0.429 µM)	0.071 (≈ 0.304 µM)	0.09 (≈ 0.386 µM)
c1ccc(-c2cc(-c3cccs3)cc(-c3cccnc3)n2)nc1	190 (≈ 0.602 µM)	2.9 (≈ 0.00919 µM)	52 (≈ 165 µM)	0.056 (≈ 0.178 µM)	0.031 (≈ 0.0983 µM)	77.7 (≈ 246 µM)	56.1 (≈ 178 µM)	78.9 (≈ 250 µM)
c1ccc(-c2cc(-c3ccco3)cc(-c3ccccn3)n2)nc1	2.4 (≈ 0.00802 µM)	0.064 (≈ 0.000214 µM)	0.13 (≈ 0.434 µM)	0.0041 (≈ 0.0137 µM)	0.0025 (≈ 0.00835 µM)	9.9 (≈ 33.1 µM)	0.1 (≈ 0.334 µM)	0.22 (≈ 0.735 µM)
c1ccc(-c2cc(-c3cccnc3)nc(-c3ccccn3)c2)cc1	330 (≈ 1.07 µM)	74 (≈ 0.239 µM)	49.6 (≈ 160 µM)	0.36 (≈ 1.16 µM)	0.28 (≈ 0.905 µM)	89.2 (≈ 288 µM)	40.9 (≈ 132 µM)	44.8 (≈ 145 µM)
c1ccc(-c2cc(-c3ccsc3)cc(-c3ccccn3)n2)nc1	2.7 (≈ 0.00856 µM)	0.097 (≈ 0.000308 µM)	0.1 (≈ 0.317 µM)	0.0047 (≈ 0.0149 µM)	0.0017 (≈ 0.00539 µM)	0.89 (≈ 2.82 µM)	0.29 (≈ 0.919 µM)	0.62 (≈ 1.97 µM)
c1ccc(-c2cc(-c3ccsc3)cc(-c3cccnc3)n2)nc1	360 (≈ 1.14 µM)	640 (≈ 2.03 µM)	> 100	0.31 (≈ 0.983 µM)	0.054 (≈ 0.171 µM)	> 100	> 100	> 100
c1ccc(-c2cc(-c3ccoc3)cc(-c3ccccn3)n2)nc1	2.6 (≈ 0.00869 µM)	0.032 (≈ 0.000107 µM)	0.6 (≈ 2 µM)	0.0058 (≈ 0.0194 µM)	0.0044 (≈ 0.0147 µM)	0.33 (≈ 1.1 µM)	0.06 (≈ 0.2 µM)	0.08 (≈ 0.267 µM)
COc1cccc2c1C(=O)c1c(O)c3c(c(O)c1C2=O)C[C@@](O)(C(=O)CO)C[C@@H]3O[C@H]1C[C@H](N)[C@H](O)[C@H](C)O1 [DOXORUBICIN]	4.6 (≈ 0.00846 µM)	6.4 (≈ 0.0118 µM)	0.073 (≈ 0.134 µM)	0.072 (≈ 0.132 µM)	0.029 (≈ 0.0534 µM)	0.059 (≈ 0.109 µM)	0.071 (≈ 0.131 µM)	0.092 (≈ 0.169 µM)
c1ccc(-c2cc(-c3cccs3)cc(-c3ccncc3)n2)nc1	520 (≈ 1.65 µM)	840 (≈ 2.66 µM)	48.3 (≈ 153 µM)	0.65 (≈ 2.06 µM)	0.22 (≈ 0.698 µM)	35.2 (≈ 112 µM)	15.1 (≈ 47.9 µM)	36.2 (≈ 115 µM)
